A word on the inhibition: it is the share of the control response that was lost under treatment. Usually pIC50 stands for −log10 of the IC50, conventionally taken in molar units.

In patent US20250092066A1, “SUBSTITUTED BICYCLIC HETEROCYCLES AS MALT-1 INHIBITORS” (AURIGENE ONCOLOGY LIMITED, priority 2022, published 2025) one finds inhibition and IC50 data, which are given here for four compounds.

The experiment addresses MALT-1 (Isoform1) (Homo sapiens (Human), UniProt Q9UDY8). Description: Biochemical fluorescent assay of MALT-1 (Isoform1) enzyme inhibition. To be noted: recombinant MALT-1 (Isoform1); for inhibition at 1 µM: compound at 1 μM, read-out: Percent Inhibition (@ 1 μM); for pIC50: 50 μM AC-LRSR-MAC substrate, 240 min. The method, then: The potency of compounds to inhibit MALT-1 (Isoform1) enzyme was tested in a Fluorescent assay using recombinant MALT-1 (Isoform1, aa-840) generated in-house. The assay buffer was 50 mM HEPES (pH 7.5), 100 mM NaCl, 10 mM DTT, 1 mM EDTA, 0.9 M sodium citrate, 0.01% CHAPS. 1.5 nM of MALT-1 enzyme was incubated with various concentrations of test compounds ([…]) (1% DMSO) in the presence of buffer for 30 minutes at 30° C. The protease reaction was initiated by adding 50 μM of AC-LRSR-MAC (Peptide International, USA) substrate and incubated for 240 min. After 240 min incubation, fluorescence emission of the samples at 460 nm was measured at an excitation of 355 nm. The percent inhibition was calculated using the following formula: […]. IC50 values were determined by fitting the dose-response data to sigmoidal curve fitting equation using Graph pad prism software VS.

pIC50: −log10 of the molar value. Where only a bound is given, the exact number is not on record here.

Sequence of MALT-1 (Isoform1) (Q9UDY8 whole entry, canonical isoform): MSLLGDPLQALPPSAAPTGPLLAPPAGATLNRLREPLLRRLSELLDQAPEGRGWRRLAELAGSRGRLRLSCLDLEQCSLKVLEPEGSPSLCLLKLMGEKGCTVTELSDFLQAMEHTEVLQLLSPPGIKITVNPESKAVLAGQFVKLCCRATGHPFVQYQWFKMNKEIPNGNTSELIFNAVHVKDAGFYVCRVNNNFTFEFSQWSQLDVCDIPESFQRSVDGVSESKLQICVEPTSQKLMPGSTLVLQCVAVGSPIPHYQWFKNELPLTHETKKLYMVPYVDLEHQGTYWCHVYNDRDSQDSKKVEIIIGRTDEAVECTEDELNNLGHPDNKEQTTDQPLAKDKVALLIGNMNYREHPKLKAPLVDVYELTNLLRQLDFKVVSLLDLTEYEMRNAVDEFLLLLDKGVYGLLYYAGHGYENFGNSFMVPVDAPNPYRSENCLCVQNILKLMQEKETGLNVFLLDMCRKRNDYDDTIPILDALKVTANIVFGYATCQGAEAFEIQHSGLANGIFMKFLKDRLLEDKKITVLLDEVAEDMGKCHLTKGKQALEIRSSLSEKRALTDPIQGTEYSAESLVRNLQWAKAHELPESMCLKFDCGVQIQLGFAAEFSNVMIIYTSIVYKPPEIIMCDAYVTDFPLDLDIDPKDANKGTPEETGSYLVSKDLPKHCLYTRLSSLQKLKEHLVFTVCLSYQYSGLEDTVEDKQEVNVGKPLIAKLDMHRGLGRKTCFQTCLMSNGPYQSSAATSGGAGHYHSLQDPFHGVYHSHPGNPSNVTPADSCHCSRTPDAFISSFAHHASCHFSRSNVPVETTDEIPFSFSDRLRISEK

As to `COC(c1c(NC(=O)Nc2cc(F)c3nc(C)nn3c2)cnc2cc(Cl)nn12)C(C)C` (single isomer, unassigned) [Example 31a, 1-(2-chloro-7-(1-methoxy-2-methylpropyl)pyrazolo[1,5-a]pyrimidin-6-yl)-3-(8-fluoro-2-methyl-[1,2,4]triazolo[1,5-a]pyridin-6-yl)urea], the inhibition at 1 µM amounted to 100% and the negative logarithm of the IC50 (pIC50) is greater than 7.30.

Regarding `CO[C@@H](C)c1c(NC(=O)Nc2cc(Br)c3ncnn3c2)cnc2cc(Cl)nn12` [Example 3], the inhibition at 1 µM came to 96% and the pIC50 is greater than 7.30.

On to `CO[C@@H](C)c1c(NC(=O)Nc2cc(Cl)c3nc(C4CC4)nn3c2)cnc2cc(Cl)nn12` [Example 6], for which the inhibition at 1 µM stood at 97% and the negative logarithm of the IC50 (pIC50) is greater than 7.30.

As to `CO[C@@H](C)c1c(NC(=O)Nc2cc(F)c3ncc(C)n3c2)cnc2cc(Cl)nn12` [Example 44], the inhibition at 1 µM amounted to 90% and the pIC50 is 6.60 to 7.29.
